In patent US9051310B2, “Nicotinamide derivative or salt thereof” (FUJIFILM Corporation, priority 2011, dated 2015):
pIC50: −log10 of the molar value.

Tests used:
[1] = target: T1, glutathione S-transferase (GST)-linked full-length human Syk protein (Homo sapiens, UniProt P43405); assay: Syk enzyme assay; format: biochemical; settings: 0.83 nM Syk, time-resolved fluorescence; read-out: IC50 of Syk-inhibitory activity
T1 construct: glutathione S-transferase (GST)-linked full-length human Syk protein; purchased Carna Biosciences; host or cells: Baculovirus expression system
In short: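 Phosphotyrosine on a biotin-peptide substrate (0.5 μM) was read by time-resolved fluorescence at 615 and 665 nm with Eu-anti-pTyr antibody and APC-streptavidin after 1 h EDTA stop.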

[2] = test system: THP-1 cells (TNFα secretion on human IgG-coated plate); assay: TNFα generation assay; format: cell-based; settings: IFN-γ differentiated THP-1 cells, 7 hours, AlphaLISA, read-out: IC50 of TNFα generation inhibitory activity
In short: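 THP-1 cells were differentiated with 10 ng/ml IFN-γ for 2 days, then preincubated with compound for 30 min at room temperature. They were then plated at 5×10^4 cells/well on plates coated with human IgG (10 μg/ml). TNFα secreted over 7 h of culture was quantified by AlphaLISA.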

SMILES	pIC50 [1]	pIC50 [2]
Cn1nc(F)c2cc(Nc3nc(N[C@@H]4CCOC[C@@H]4N)c(F)cc3C(N)=O)ccc21 [Example 2-209, 6-(((3R,4R)-3-aminotetrahydro-2H-pyran-4-yl)amino)-5-fluoro-2-((3-fluoro-1-methyl-1H-indazol-5-yl)amino)nicotinamide]	> 8.00	6.89 to 7.19
COc1nn(C)c2ccc(Nc3nc(N[C@@H]4CCOC[C@@H]4N)c(F)cc3C(N)=O)cc12 [Example 2-210, 6-(((3R,4R)-3-aminotetrahydro-2H-pyran-4-yl)amino)-5-fluoro-2-((3-methoxy-1-methyl-1H-indazol-5-yl)amino)nicotinamide]	> 8.00	> 7.19
COc1nn(C)c2c(F)cc(Nc3nc(N[C@@H]4CCOC[C@@H]4N)c(F)cc3C(N)=O)cc12 [Example 2-211, 6-(((3R,4R)-3-aminotetrahydro-2H-pyran-4-yl)amino)-5-fluoro-2-((7-fluoro-3-methoxy-1-methyl-1H-indazol-5-yl)amino)nicotinamide]	> 8.00	6.89 to 7.19
COc1ncc(Nc2nc(N[C@@H]3CCOC[C@@H]3N)c(F)cc2C(N)=O)cc1-n1ccnn1 [Example 2-215, 6-(((3R,4R)-3-aminotetrahydro-2H-pyran-4-yl)amino)-5-fluoro-2-((6-methoxy-5-(1H-1,2,3-triazol-1-yl)pyridin-3-yl)amino)nicotinamide]	7.30 to 8.00	6.70 to 6.89
Cc1ccc(Nc2nc(N[C@@H]3CCOC[C@@H]3N)c(F)cc2C(N)=O)cn1 [Example 2-219, 6-(((3R,4R)-3-aminotetrahydro-2H-pyran-4-yl)amino)-5-fluoro-2-((6-methylpyridin-3-yl)amino)nicotinamide]	7.30 to 8.00	6.70 to 6.89
Cc1ncc(Nc2nc(N[C@H](C3CC3)[C@H](C)N)c(F)cc2C(N)=O)cc1F [Example 2-220, 6-(((1R,2S)-2-amino-1-cyclopropylpropyl)amino)-5-fluoro-2-((5-fluoro-6-methylpyridin-3-yl)amino)nicotinamide]	7.30 to 8.00	6.70 to 6.89
CC[C@@H](Nc1nc(Nc2cnc(C)c(F)c2)c(C(N)=O)cc1F)[C@H](C)N [Example 2-222, 6-(((2S,3R)-2-aminopentan-3-yl)amino)-5-fluoro-2-((5-fluoro-6-methylpyridin-3-yl)amino)nicotinamide]	7.30 to 8.00	6.70 to 6.89
CCC[C@@H](Nc1nc(Nc2cnc(C)c(F)c2)c(C(N)=O)cc1F)[C@H](C)N [Example 2-223, 6-(((2S,3R)-2-aminohexan-3-yl)amino)-5-fluoro-2-((5-fluoro-6-methylpyridin-3-yl)amino)nicotinamide]	> 8.00	6.70 to 6.89
Cc1ncc(Nc2nc(N[C@@H]3CCOC[C@@H]3N)c(F)cc2C(N)=O)cc1F [Example 2-225, 6-(((3R,4R)-3-aminotetrahydro-2H-pyran-4-yl)amino)-5-fluoro-2-((5-fluoro-6-methylpyridin-3-yl)amino)nicotinamide]	7.30 to 8.00	6.70 to 6.89
COc1cc(Nc2nc(N[C@H](C)[C@@H](N)C3CC3)c(F)cc2C(N)=O)cc(OC)c1 [Example 2-229, 6-(((1S,2R)-1-amino-1-cyclopropylpropan-2-yl)amino)-2-((3,5-dimethoxyphenyl)amino)-5-fluoronicotinamide]	7.30 to 8.00	6.70 to 6.89
CCn1ncc2cc(Nc3nc(N[C@H](C)[C@@H](N)C4CC4)c(F)cc3C(N)=O)ccc21 [Example 2-230, 6-(((1S,2R)-1-amino-1-cyclopropylpropan-2-yl)amino)-2-((1-ethyl-1H-indazol-1-5-yl)amino)-5-fluoronicotinamide]	7.30 to 8.00	6.89 to 7.19
C[C@H](N)[C@H](Nc1nc(Nc2ccnc(N3CCOCC3)c2F)c(C(N)=O)cc1F)C1CC1 [Example 2-233, 6-(((1R,2S)-2-amino-1-cyclopropylpropyl)amino)-5-fluoro-2-((3-fluoro-2-morpholinopyridin-4-yl)amino)nicotinamide]	7.30 to 8.00	6.70 to 6.89
Cc1nn(C)c2ncc(Nc3nc(N[C@@H]4CCCC[C@@H]4N)c(F)cc3C(N)=O)cc12 [Example 2-239, 6-(((1R,2S)-2-aminocyclohexyl)amino)-2-((1,3-dimethyl-1H-pyrazolo[3,4-b]pyridin-5-yl)amino)-5-fluoronicotinamide]	7.30 to 8.00	6.70 to 6.89
Cc1nn(C)c2ncc(Nc3nc(N[C@@H](CN)CC(C)C)c(F)cc3C(N)=O)cc12 [Example 2-240, (R)-6-((1-amino-4-methylpentan-2-yl)amino)-2-((1,3-dimethyl-1H-pyrazolo[3,4-b]pyridin-5-yl)amino)-5-fluoronicotinamide]	> 8.00	6.70 to 6.89
CCC[C@@H](Nc1nc(Nc2cnc3c(c2)c(C)nn3C)c(C(N)=O)cc1F)[C@H](C)N [Example 2-242, 6-(((2S,3R)-2-aminohexan-3-yl)amino)-2-((1,3-dimethyl-1H-pyrazolo[3,4-b]pyridin-5-yl)amino)-5-fluoronicotinamide]	7.30 to 8.00	6.70 to 6.89
Cc1nn(C)c2ncc(Nc3nc(N[C@H](C4CC4)[C@H](C)N)c(F)cc3C(N)=O)cc12 [Example 2-243, 6-(((1R,2S)-2-amino-1-cyclopropylpropyl)amino)-2-((1,3-dimethyl-1H-pyrazolo[3,4-b]pyridin-5-yl)amino)-5-fluoronicotinamide]	7.30 to 8.00	6.70 to 6.89
COc1nn(C)c2ncc(Nc3nc(N[C@@H]4CCCC[C@@H]4N)c(F)cc3C(N)=O)cc12 [Example 2-249, 6-(((1R,2S)-2-aminocyclohexyl)amino)-5-fluoro-2-((3-methoxy-1-methyl-1H-pyrazolo[3,4-b]pyridin-5-yl)amino)nicotinamide]	> 8.00	6.89 to 7.19
COc1nn(C)c2ncc(Nc3nc(N[C@H](C4CC4)[C@H](C)N)c(F)cc3C(N)=O)cc12 [Example 2-253, 6-(((1R,2S)-2-amino-1-cyclopropylpropyl)amino)-5-fluoro-2-((3-methoxy-1-methyl-1H-pyrazolo[3,4-b]pyridin-5-yl)amino)nicotinamide]	> 8.00	6.89 to 7.19
CCCC[C@@H](Nc1nc(Nc2cnc3c(c2)c(OC)nn3C)c(C(N)=O)cc1F)[C@H](C)N [Example 2-254, 6-(((2S,3R)-2-aminoheptan-3-yl)amino)-5-fluoro-2-((3-methoxy-1-methyl-1H-pyrazolo[3,4-b]pyridin-5-yl)amino)nicotinamide]	> 8.00	6.70 to 6.89
COc1nn(C)c2ncc(Nc3nc(N[C@H](CC(C)C)[C@H](C)N)c(F)cc3C(N)=O)cc12 [Example 2-255, 6-(((2S,3R)-2-amino-5-methylhexan-3-yl)amino)-5-fluoro-2-((3-methoxy-1-methyl-1H-pyrazolo[3,4-b]pyridin-5-yl)amino)nicotinamide]	> 8.00	6.70 to 6.89
CC[C@H](N)[C@@H](CC)Nc1nc(Nc2ccc3c(cnn3CCOC)c2)c(C(N)=O)cc1F [Example 2-266, 6-(((3R,4S)-4-aminohexan-3-yl)amino)-5-fluoro-2-((1-(2-methoxyethyl)-1H-indazol-5-yl)amino)nicotinamide]	> 8.00	6.89 to 7.19
CCOC[C@@H](Nc1nc(Nc2cc(OC)cc(OC)c2)c(C(N)=O)cc1F)[C@H](C)N [Example 2-268, 6-(((2S,3S)-3-amino-1-ethoxybutan-2-yl)amino)-2-((3,5-dimethoxyphenyl)amino)-5-fluoronicotinamide]	7.30 to 8.00	6.70 to 6.89
COc1cc(Nc2nc(N[C@H](c3ccc(F)cc3)[C@H](C)N)c(F)cc2C(N)=O)cc(OC)c1 [Example 2-269, 6-(((1R,2S)-2-amino-1-(4-fluorophenyl)propyl)amino)-2-((3,5-dimethoxyphenyl)amino)-5-fluoronicotinamide]	> 8.00	6.89 to 7.19
CNc1ncc(Nc2nc(N[C@@H]3CCCC[C@@H]3N)c(F)cc2C(N)=O)cc1F [Example 2-273, 6-(((1R,2S)-2-aminocyclohexyl)amino)-5-fluoro-2-((5-fluoro-6-(methylamino)pyridin-3-yl)amino)nicotinamide]	> 8.00	6.89 to 7.19
CNc1ncc(Nc2nc(N[C@H](C3CC3)[C@H](C)N)c(F)cc2C(N)=O)cc1F [Example 2-274, 6-(((1R,2S)-2-amino-1-cyclopropylpropyl)amino)-5-fluoro-2-((5-fluoro-6-(methylamino)pyridin-3-yl)amino)nicotinamide]	7.30 to 8.00	6.70 to 6.89
CC[C@H](N)[C@@H](C)Nc1nc(Nc2cccc3c2cnn3CCOC)c(C(N)=O)cc1F [Example 2-311, 6-(((2R,3S)-3-aminopentan-2-yl)amino)-5-fluoro-2-((1-(2-methoxyethyl)-1H-indazol-4-yl)amino)nicotinamide]	> 8.00	6.70 to 6.89
COCCn1nc(C)c2cc(Nc3nc(N[C@@H]4CCOC[C@@H]4N)c(F)cc3C(N)=O)ccc21 [Example 2-327, 6-(((3R,4R)-3-aminotetrahydro-2H-pyran-4-yl)amino)-5-fluoro-2-((1-(2-methoxyethyl)-3-methyl-1H-indazol-5-yl)amino)nicotinamide]	> 8.00	6.70 to 6.89
COCCn1nc(OC)c2cc(Nc3nc(N[C@@H]4CCOC[C@@H]4N)c(F)cc3C(N)=O)ccc21 [Example 2-329, 6-(((3R,4R)-3-aminotetrahydro-2H-pyran-4-yl)amino)-5-fluoro-2-((3-methoxy-1-(2-methoxyethyl)-1H-indazol-5-yl)amino)nicotinamide]	> 8.00	6.89 to 7.19
